Format: in vitro ADME
Conditions: pig, 3 min, 174 μM
Protocol: A 500 μm tall prototype nickel microneedle 120 fabricated using the method depicted in FIGS. 1A-1G was used to inject a fluorescent chemotherapeutic drug (doxorubicin) into pigskin. A backing plate of the microneedle was bonded to a drug container that was connected to a conventional syringe via a flexible plastic capillary tube. The syringe was filled with a 174 μM solution of doxorubicin in water. The syringe was placed in a commercial syringe pump system (from KD Scientific™ of Holliston, Mass.). The microneedle 120 was applied to a shaved pigskin sample. The pump was set to push the plunger to generate a constant flow rate of 0.2 μL/minute for 3 minutes. This flow rate was selected based on a study investigating the efficiency of transdermal drug injection using silicon microneedles (U. O. Häfeli, et al., (2009), Biomed. Microdevices, Vol. 11, pp. 943-950) which found an average delivery rate of 0.2 μL/minute through each needle in an injection trial. After the injection, the skin was cleaned and then scanned using confocal microscopy.

depth of penetration of doxorubicin into the skin: approximately 130 μm
SMILES: COc1cccc2c1C(=O)c1c(O)c3c(c(O)c1C2=O)C[C@@](O)(C(=O)CO)C[C@@H]3O[C@H]1C[C@H](N)[C@H](O)[C@H](C)O1 [doxorubicin]

Source: patent US10589078B2, “Metallic microneedles” (MICRODERMICS INC., priority 2013, dated 2020)
